One data set has as its system HRV16. The data set can be described thus: Rhinovirus-titre assay. The class given is cell-based, human rhinovirus. Conditions: Human rhinovirus sp.; for inhibition at 0.04 µg/mL: cell not marked b, test compounds 0.04 μg/mL per method (footnote b, 0.2 μg/mL). The procedure: MRC5 cells (human lung fibroblast, ATCC) were infected with 1 MOI (multiplicity of infection of 1.0) of HRV16 and incubated for 1 hr at 33° C. with gentle shaking to stimulate adsorption. The cells were then washed with PBS, fresh media was added and the cells were incubated for a further 96 hr. The supernatant was collected and 10-fold serial dilutions of virus containing supernatant were prepared. All titrations were performed by infecting confluent Hela cell monolayers with serially diluted supernatant (10^−1-10^−5) and assessing the cytopathic effect by visual inspection 4 days after infection. The amount of virus required to infect 50% of Hela cells was calculated in each treatment as TCID50. Test compounds (0.04 μg/mL) were added 2 hr before HRV infection and 1 hr after infection when non-infected HRV was washed out. The anti-HRV activity of each test compound was determined as the difference of the log TCID50 of HRV16 in the presence of the compound with the log TCID50 of HRV16 in the absence of compound. […]

Data set [1] concerns IL-8 release in d-U937 cells. The data set can be described thus: LPS-induced IL-8 release in d-U937 cells. The class given is cell-based. Conditions: Homo sapiens, read-out: d-U937 (LPS) IL-8 IC50. Here is the method:
(§1) U937 cells, a human monocytic cell line, were differentiated to macrophage-type cells by incubation with phorbol myristate acetate (PMA; 100 ng/mL) for 48 to 72 hr, whereupon the cells become adherent. […] Coli: O111:B4, Sigma) for 4 hr. The supernatant was collected for determination of TNFα and IL-8 concentrations by sandwich ELISA (Duo-set, R&D systems). […] The relative 50% effective concentration (REC50) was determined from the resultant concentration-response curve. The inhibition of IL-8 production was calculated at each concentration of test compound by comparison with vehicle control.

The test system of data set [2] is TNFα release in d-U937 cells. Briefly: LPS-induced TNFα release in d-U937 cells. The class given is cell-based. The following applies: Homo sapiens, dU937, LPS 0.1 μg/mL, 4 hr, relative to 10 μg/mL BIRB796, read-out: d-U937 (LPS) TNFα REC50. The procedure: as §1
In data set [3] the test system is ICAM-1 expression in BEAS2B cells. The data set can be described thus: Poly I:C-induced ICAM-1 induction in BEAS2B cells. The class given is cell-based. Conditions: Homo sapiens, BEAS-2B, read-out: BEAS2B (polyIC) ICAM1 IC50. Here is the method: Poly I:C (1 μg/mL) (Invivogene Ltd., San Diego, Calif.) was transfected into BEAS2B cells (human bronchial epithelial cells, ATCC) with Oligofectamine (Invitrogen, Carlsbad, Calif.). Cells were pre-incubated with final concentrations of test compounds for 2 hr and the level of ICAM1 expression on the cell surface was determined by cell-based ELISA. […] The cells were washed with PBS-Tween and incubated with the secondary antibody (HRP-conjugated anti-rabbit IgG, Dako Ltd., Glostrup, Denmark).

For data set [4], the system named is Differentiated U937 cells. The data set can be described thus: MTT assay: cell viability. The class given is cell-based, human. The following applies: for d-U937 MTT Assay 4 h: 5% FCS; for d-U937 MTT Assay 24 h: 10% FCS. The procedure:
Differentiated U937 cells were pre-incubated with each test compound under two protocols: the first for 4 hr in 5% FCS and the second in 10% FCS for 24 h. The supernatant was replaced with 200 μL of new media and 10 μL of MTT stock solution (5 mg/mL) was added to each well. After incubation for 1 hr the media were removed, 200 μL of DMSO was added to each well and the plates were shaken lightly for 1 hr prior to reading the absorbance at 550 nm. The percentage loss of cell viability was calculated for each well relative to vehicle (0.5% DMSO) treatment. Consequently an apparent increase in cell viability for drug treatment relative to vehicle is tabulated as a negative percentage.

The test system of data set [5] is TNFα release in THP-1 cells. Briefly: LPS-induced TNFα release in THP-1 cells. The class given is cell-based. Conditions: Homo sapiens, read-out: THP1 (LPS) TNFα IC50. Here is the method:
The inhibition of TNFα production was calculated at each concentration by comparison with vehicle control.

A further data set has as its target p38 MAPK γ (MAPK12) (Homo sapiens (Human), UniProt P53778). The data set can be described thus: Enzyme inhibition assay (FRET, Z-LYTE), p38 MAPK gamma. In kind it is biochemical. The following applies: read-out: Enzyme Profile: IC50 Values p38γ. Here is the method: The enzyme inhibitory activity of test compounds was determined by fluorescence resonance energy transfer (FRET) using synthetic peptides labelled with both donor and acceptor fluorophores (Z-LYTE, Invitrogen). Recombinant, phosphorylated p38 MAPK γ (MAPK12:Millipore) was diluted in HEPES buffer, mixed with compound at the desired final concentrations and incubated for 2 hr at RT. The FRET peptide (2 μM) and ATP (100 μM) were next added to the enzyme/compound mixture and incubated for 1 hr. Development reagent (protease) was added for 1 hr prior to detection in a fluorescence microplate reader. The site-specific protease only cleaves non-phosphorylated peptide and eliminates the FRET signal. Phosphorylation levels of each reaction were calculated using the ratio of coumarin emission (donor) over fluorescein emission (acceptor) with high ratios indicating high phosphorylation levels and low ratios indicating low phosphorylation levels.

The target in a further data set is cSrc enzyme (Homo sapiens (Human), UniProt P12931). The data set can be described thus: c-SRC enzyme inhibition assay (FRET, Z'-LYTE). The class given is biochemical. Conditions: read-out: Enzyme Profile: IC50 Values cSrc.
The mark [6] stands for this setting: HRV16, cell marked b: performed at 0.2 μg/mL, read-out: HRV titre (inhibitory %): % inhibition observed vs. HRV16 infection control.
Setting [7] is: dU937, d-U937 cells, LPS 0.1 μg/mL, 4 hr.
Where [8] appears, read: BEAS2B cells, poly I:C 1 μg/mL, 18 hr.
Setting [9] is: HRV16, read-out: HRV titre (inhibitory %): % inhibition observed vs. HRV16 infection control.

Like-named read-outs stand apart in the source and are kept apart here.

As a reminder, the inhibition is the share of the control response that was lost under treatment. One may read the IC50 as the midpoint of a concentration-inhibition curve.

p38 MAPK γ (MAPK12), sequence (P53778 whole entry): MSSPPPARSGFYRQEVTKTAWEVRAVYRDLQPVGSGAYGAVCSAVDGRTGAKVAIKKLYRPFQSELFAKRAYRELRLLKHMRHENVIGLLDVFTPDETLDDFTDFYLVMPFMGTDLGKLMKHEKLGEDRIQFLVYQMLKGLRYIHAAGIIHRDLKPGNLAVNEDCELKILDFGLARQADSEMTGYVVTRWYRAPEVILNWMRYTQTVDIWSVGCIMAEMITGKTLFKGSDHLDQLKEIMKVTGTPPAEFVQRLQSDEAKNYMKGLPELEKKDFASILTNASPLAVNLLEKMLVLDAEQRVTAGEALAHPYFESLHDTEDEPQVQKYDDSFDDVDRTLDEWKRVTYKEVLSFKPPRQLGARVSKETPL
cSrc enzyme, sequence (P12931 whole entry, looked up): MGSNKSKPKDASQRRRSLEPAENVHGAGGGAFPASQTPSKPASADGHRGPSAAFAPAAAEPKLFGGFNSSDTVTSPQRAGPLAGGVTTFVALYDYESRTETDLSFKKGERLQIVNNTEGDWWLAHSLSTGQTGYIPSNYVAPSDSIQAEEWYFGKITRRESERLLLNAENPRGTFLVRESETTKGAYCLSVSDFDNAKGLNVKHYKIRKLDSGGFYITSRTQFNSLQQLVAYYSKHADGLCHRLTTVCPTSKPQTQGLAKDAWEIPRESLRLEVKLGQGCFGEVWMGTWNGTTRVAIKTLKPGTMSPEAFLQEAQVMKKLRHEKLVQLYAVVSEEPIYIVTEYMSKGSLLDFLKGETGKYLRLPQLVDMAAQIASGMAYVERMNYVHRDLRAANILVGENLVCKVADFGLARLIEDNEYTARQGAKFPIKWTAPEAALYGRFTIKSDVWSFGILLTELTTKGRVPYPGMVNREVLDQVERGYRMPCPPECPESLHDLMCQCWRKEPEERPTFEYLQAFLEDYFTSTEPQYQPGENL

Regarding `Cc1ccc(-n2nc(C(C)(C)C)cc2NC(=O)Nc2ccc(OCCN3CCOCC3)c3ccccc23)cc1` [BIRB 796, 1-(3-tert-butyl-1-p-tolyl-1H-pyrazol-5-yl)-3-(4-(2-morpholinoethoxy)naphthalen-1-yl)urea, reference compound], in the data set with HRV16 (setting [6]), the inhibition at 0.2 µg/mL was 28%. For the same molecule, the 50% inhibitory concentration (IC50) in data set [1] (setting [7]) is over 1890 nM; in data set [3] (setting [8]), 3530 nM; in data set [5] (THP-1 cells, LPS 3 μg/mL, 4 hr), 4.1 nM. The EC50 in data set [2] was 4.8 nM. In addition, in data set [4] (performed at 10 μg/mL), the “d-U937 MTT Assay 4 h” value is “− ^d (− and + indicate the result is below and above the no significant effect threshold, respectively (<30% inhibition at a concentration of 1 μg/ml))”. In addition, the “d-U937 MTT Assay 24 h” value in data set [4] (performed at 10 μg/mL) was “− ^d (− and + indicate the result is below and above the no significant effect threshold, respectively (<30% inhibition at a concentration of 1 μg/ml))”.
In the case of `Cc1ccc(-n2nc(C(C)(C)C)cc2NC(=O)Nc2ccc(Oc3ccnc4[nH]c(=O)cnc34)c3ccccc23)cc1` [Example 6], the inhibition at 0.04 µg/mL in the data set on HRV16 (setting [9]) was found to be 80%. The IC50 in data set [1] (setting [7]) amounted to 5.2 nM; in data set [3] (setting [8]), 11 nM; at p38 MAPK γ (MAPK12) it was 72 nM; at cSrc enzyme, 9 nM; in data set [5] (THP-1 cells, LPS 3 μg/mL, 4 hr), 0.7 nM. Further, in data set [2], the EC50 was 1.1 nM. Moreover, in data set [4] (1 μg/ml), the “d-U937 MTT Assay 4 h” value was “− (− and + indicate the result is below and above the no significant effect threshold, respectively (<30% inhibition at a concentration of 1 μg/ml))”. Besides, the “d-U937 MTT Assay 24 h” value in data set [4] (1 μg/ml) is “− (− and + indicate the result is below and above the no significant effect threshold, respectively (<30% inhibition at a concentration of 1 μg/ml))”.
Turning to `Cc1ccc(-n2nc(C(C)(C)C)cc2NC(=O)Nc2ccc(Oc3ccnc4[nH]c(=O)cnc34)c3ccccc23)s1` [Example 21], in the data set on HRV16 (setting [9]), the inhibition at 0.04 µg/mL is 80%. Besides, the IC50 in data set [1] (setting [7]) was determined as 3.3 nM; in data set [5] (THP-1 cells, LPS 3 μg/mL, 4 hr), 11 nM. Moreover, the EC50 in data set [2] is 7.1 nM. Besides, the “d-U937 MTT Assay 4 h” value in data set [4] (1 μg/ml) is “− (− and + indicate the result is below and above the no significant effect threshold, respectively (<30% inhibition at a concentration of 1 μg/ml))”. Besides, the “d-U937 MTT Assay 24 h” value in data set [4] (1 μg/ml) is “− (− and + indicate the result is below and above the no significant effect threshold, respectively (<30% inhibition at a concentration of 1 μg/ml))”.
Take `Cc1ccc(-n2nc(C(C)C)cc2NC(=O)Nc2ccc(Oc3ccnc4[nH]c(=O)cnc34)c3ccccc23)cc1` [Example 30, 1-(3-isopropyl-1-(p-tolyl)-1H-pyrazol-5-yl)-3-(4-((3-oxo-3,4-dihydropyrido[2,3-b]pyrazin-8-yl)oxy)naphthalen-1-yl)urea]: the inhibition at 0.04 µg/mL in the data set with HRV16 (setting [9]) was 36%. Besides, the half-maximal inhibitory concentration (IC50) in data set [1] (setting [7]) was 4.3 nM; in data set [3] (setting [8]) it was 27 nM; in data set [5] (THP-1 cells, LPS 3 μg/mL, 4 hr) it was 34 nM. Further, the EC50 in data set [2] was 1.1 nM. Besides, the “d-U937 MTT Assay 4 h” value in data set [4] (1 μg/ml) was “− (− and + indicate the result is below and above the no significant effect threshold, respectively (<30% inhibition at a concentration of 1 μg/ml))”. Further, in data set [4] (1 μg/ml), the “d-U937 MTT Assay 24 h” value is “− (− and + indicate the result is below and above the no significant effect threshold, respectively (<30% inhibition at a concentration of 1 μg/ml))”.
In the case of `CC(C)(C)c1cc(NC(=O)Nc2ccc(Oc3ccnc4[nH]c(=O)cnc34)c3ccccc23)n(-c2ccc(Cl)c(Cl)c2)n1` [Example 32, 1-(3-(tert-butyl)-1-(3,4-dichlorophenyl)-1H-pyrazol-5-yl)-3-(4-((3-oxo-3,4-dihydropyrido[2,3-b]pyrazin-8-yl)oxy)naphthalen-1-yl)urea], the inhibition at 0.04 µg/mL in the data set with HRV16 (setting [9]) is 80%. For the same molecule, the half-inhibitory concentration (IC50) in data set [1] (setting [7]) amounted to 7 nM; in data set [3] (setting [8]), 10 nM; in data set [5] (THP-1 cells, LPS 3 μg/mL, 4 hr), 8.8 nM. Moreover, in data set [2], the EC50 is 5.5 nM. Besides, the “d-U937 MTT Assay 4 h” value in data set [4] (1 μg/ml) is “− (− and + indicate the result is below and above the no significant effect threshold, respectively (<30% inhibition at a concentration of 1 μg/ml))”. For the same molecule, in data set [4] (1 μg/ml), the “d-U937 MTT Assay 24 h” value is “− (− and + indicate the result is below and above the no significant effect threshold, respectively (<30% inhibition at a concentration of 1 μg/ml))”.
For the molecule `COCC(=O)Nc1cc(Oc2ccc(NC(=O)Nc3cc(C(C)(C)C)nn3-c3ccc(C)cc3)c3ccccc23)ccn1` [Ref 2, N-(4-(4-(3-(3-tert-butyl-1-p-tolyl-1H-pyrazol-5-yl)ureido)naphthalen-1-yloxy)pyridin-2-yl)-2-methoxy acetamide, reference compound], the inhibition at 0.2 µg/mL with HRV16 (setting [6]) is 100%. Also, in data set [2], the EC50 stood at 0.13 nM. Also, in data set [4] (1 μg/ml), the “d-U937 MTT Assay 4 h” value was “− (− and + indicate the result is below and above the no significant effect threshold, respectively (<30% inhibition at a concentration of 1 μg/ml))”; the “d-U937 MTT Assay 24 h” value was “− (− and + indicate the result is below and above the no significant effect threshold, respectively (<30% inhibition at a concentration of 1 μg/ml))”.
For the molecule `COCC(=O)Nc1cc(COc2ccc(NC(=O)Nc3cc(C(C)(C)C)nn3-c3ccc(C)cc3)c3ccccc23)ccn1` [Ref. 1, N-(4-((4-(3-(3-tert-butyl-1-p-tolyl-1H-pyrazol-5-yl)ureido)naphthalen-1-yloxy)methyl)pyridin-2-yl)-2-methoxyacetamide, reference compound], the inhibition at 0.2 µg/mL in the data set on HRV16 (setting [9]) stood at 96%. For the same molecule, the 50% inhibitory concentration (IC50) in data set [1] (dU937, 4 h) came out at 92 nM; in data set [3] (18 h) it was 618 nM; in data set [5] (THP-1, 4 h), 2.3 nM. In data set [2], the EC50 is 0.9 nM. Moreover, the “d-U937 MTT Assay 4 h” value in data set [4] (performed at 10 μg/mL) is “− ^d (− and + indicate the result is below and above the no significant effect threshold, respectively (<30% inhibition at a concentration of 1 μg/ml))”. Also, in data set [4] (performed at 10 μg/mL), the “d-U937 MTT Assay 24 h” value is “− ^d (− and + indicate the result is below and above the no significant effect threshold, respectively (<30% inhibition at a concentration of 1 μg/ml))”.

(Values after patent publication US8933228B2, “Respiratory formulations and compounds for use therein” (Respivert, Ltd., priority 2010, dated 2015).)
